The text below walks through data of publication PMC11382315 (Heliyon, 2024).

pKd: −log10 of the molar value.

For data set [1], the target named is T1, HSP90AA1 (Homo sapiens, UniProt P07900). The data set is described as follows: Microscale thermophoresis. In kind it is binding. Background: MST reads how a fluorescent partner responds to local heating, with and without ligand.
Data set [2] has as its system primary human thyrocytes. Nature of the data set: Observed cytotoxic effects in stimulated primary human thyrocytes. It counts as cell-based. Particulars: two doses: 10 and 40 μM (β-sitosterol 50 and 150 μM).
Data set [3] deals with T1, HSP90AA1. The data set is described as follows: Limited proteolysis-mass spectrometry. Particulars: lysate of dsDNA/dsRNA-stimulated primary human thyrocytes, 0.33 nmol/μg total protein. In kind it is binding.

For `O=c1c(O)c(-c2ccc(O)cc2)oc2cc(O)cc(O)c12` [kaempferol], in data set [1], the pKd (in general, the Kd on a negative log10 scale, so that one unit is a factor of ten) was 3.77. For the same molecule, in data set [2], the cytotoxic effects result was “without observed cytotoxic effects”.
In data set [1], `O=c1cc(-c2ccc(O)c(O)c2)oc2cc(O)cc(O)c12` [luteolin] gave a pKd of 3.53. The “interaction with HSP90AA1 by Lip-MS” value in data set [3] is “identified as a common interacting protein target”.
For `O=c1c(O)c(-c2ccc(O)cc2O)oc2cc(O)cc(O)c12` [morin], the pKd in data set [1] was 3.91. The “interaction with HSP90AA1 by Lip-MS” value in data set [3] was “identified as a common interacting protein target”. Further, the cytotoxic effects entry in data set [2] is given as “without observed cytotoxic effects”.
`O=c1c(O)c(-c2ccc(O)c(O)c2)oc2cc(O)cc(O)c12` [quercetin]: the “interaction with HSP90AA1 by Lip-MS” value in data set [3] is recorded as “identified as a common interacting protein target”. Besides, in data set [2], the cytotoxic effects entry is “without observed cytotoxic effects”.
Take `CC[C@H](CC[C@@H](C)[C@H]1CC[C@H]2[C@@H]3CC=C4C[C@@H](O)CC[C@]4(C)[C@H]3CC[C@]12C)C(C)C` [β-sitosterol]: in data set [1] (His-tag labeled HSP90AA1 50 nM, ligand 30 nM to 1 mM, PBS), the “KD (affinity with HSP90AA1)” value is “no binding affinity”. In addition, the cytotoxic effects result in data set [2] is reported as “without observed cytotoxic effects”.
